From patent EP4768484A1, “HETEROCYCLIC FUSED RING COMPOUND, AND COMPOSITION AND USE THEREOF” (Shenzhen TargetRx, Inc., priority 2023, dated 2025) come the findings set out here.

Holding throughout (format): cell-based
The target of one test is T1, Ba/F3 BCR-ABL1 WT (Homo sapiens, UniProt P00519+P11274).
T1 construct: BCR (N-terminal fusion partner of the oncoprotein); expressed in transfected cells; host or cells: Ba/F3 (lentiviral transduction, monoclonal line)
As to the kind of experiment: Cell growth inhibitory activity assay (CellTiter-Glo), Ba/F3 BCR-ABL1 WT cells. As to conditions: 72 h, CTG cell viability. Summed up: (§1)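 Ba/F3 lines stably transduced by lentivirus with WT or mutant BCR-ABL1, alongside untransduced parental Ba/F3, were seeded and incubated overnight at 37 °C, 5% CO2, then exposed to serially diluted compound for 72 h. Viability was read as ATP by CellTiter-Glo luminescence against a day-of-dosing T0 plate; IC50 from four-parameter nonlinear fit.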
For orientation: Cellular ATP, detected with luciferase, serves as a proxy for viable cell number.

In another test the target is T2, Ba/F3 BCR-ABL1 A424T (Homo sapiens, UniProt P00519+P11274, A424T).
T2 construct: BCR (N-terminal fusion partner of the oncoprotein); expressed in transfected cells; host or cells: Ba/F3 (lentiviral transduction, monoclonal line)
The experiment in a line: Cell growth inhibitory activity assay (CellTiter-Glo), Ba/F3 BCR-ABL1 A424T cells. As to conditions: 72 h, CTG cell viability. As for the experimental part: (§2) In this assay, the Celltiter-Glo (CTG) kit provided by Promega was used, and it is a homogeneous cell viability assay method. The cell viability of cultured cells was measured by quantifying ATP. K562 cells were purchased from Nanjing Kebai, product number CBP60529; Ba/F3 parental cells were purchased from RIKEN BRC, product number RCB0805; other cells containing BCR-ABL1 WT, BCR-ABL1 T315I, BCR-ABL1 T315M, BCR-ABL1 Y253H/E255K, BCR-ABL1 E255V/T3151, BCR-ABL1 A424T, BCR-ABL1 A337V, BCR-ABL1 P465S, BCR-ABL1 V468F, and BCR-ABL1 I502L were all monoclonal engineered cell lines obtained by transducting Ba/F3 parental cells with the lentivirus plasmids containing WT or corresponding mutated BCR-ABL1.
(§3) The steps of cell viability assay are as follows: • a) Cells in logarithmic growth phase were collected. Cell suspension was prepared and the cells were counted. Concentration of the cells was calculated. • b) The cell suspension was diluted to the required concentration and then added to the middle wells of a 96-well plate, and PBS was added to the edge wells. The wells with no cells and only culture medium were used as blank controls. • c) In addition to the cell plate used for compound analysis, another 96-well plate was prepared as a T0 plate, and 3-6 blank wells and 3-6 cell wells were added. The next day, CTG was used to test the cell viability as the T0 viability value of the cells. • d) The cell plate was incubated at 37 °C in a 5% CO2 incubator overnight. • e) The next day, each concentration of a compound subjected to a gradient dilution was added, and the cell plate was incubated at 37 °C in a 5% CO2 incubator for 72 h. The wells with no compound and only 0.5% DMSO were used as positive controls for cell growth. • f) CTG reagent (CellTiter-Glo kit) was added according to the manufacturer's instructions to test the cell viability value. • g) The plate was read using Biotek cytation3.0 microplate reader and the data were exported. • h) IC50 was calculated using GraphPad Prism 7.0 software.
(§4) The IC50 (half-maximal inhibitory concentration) of the compound was obtained using the following nonlinear fitting formula: Y = Bottom + (Top−Bottom)/(1+10^(∧)((LogIC50−X)*HillSlope)) [formula] • X: Log value of the compound concentration • Y: Inhibition rate (% inhibition) • Top: Maximum response • Bottom: Baseline response • HillSlope: Slope of the curve
(§5) The formula for calculating cell inhibition rate (inhibition rate %) was: [formula]

The target in test [1] is T3, Ba/F3 BCR-ABL1 Y253H/E255K (Homo sapiens, UniProt P00519+P11274, E255K/Y253H).
T3 construct: BCR (N-terminal fusion partner of the oncoprotein); expressed in transfected cells; host or cells: Ba/F3 (lentiviral transduction, monoclonal line)
As to the kind of experiment: Cell growth inhibitory activity assay (CellTiter-Glo), Ba/F3 BCR-ABL1 Y253H/E255K cells. As to conditions: 72 h, CTG cell viability. On the procedure: as §2, §3, §4, §5

The next test addresses T4, Ba/F3 BCR-ABL1 T315M (Homo sapiens, UniProt P00519+P11274, T315M).
T4 construct: BCR (N-terminal fusion partner of the oncoprotein); expressed in transfected cells; host or cells: Ba/F3 (lentiviral transduction, monoclonal line)
As to the kind of experiment: Cell growth inhibitory activity assay (CellTiter-Glo), Ba/F3 BCR-ABL1 T315M cells. As to conditions: 72 h, CTG cell viability. Summed up:
as §1

A further test concerns the target T5, Ba/F3 BCR-ABL1 T315I (Homo sapiens, UniProt P00519+P11274, T315I).
T5 construct: BCR (N-terminal fusion partner of the oncoprotein); expressed in transfected cells; host or cells: Ba/F3 (lentiviral transduction, monoclonal line)
As to the kind of experiment: Cell growth inhibitory activity assay (CellTiter-Glo), Ba/F3 BCR-ABL1 T315I cells. As to conditions: 72 h, CTG cell viability. Summed up:
as §1

Test [2] concerns the target T6, Ba/F3 BCR-ABL1 E255V/T315I (Homo sapiens, UniProt P00519+P11274, E255V/T315I).
T6 construct: BCR (N-terminal fusion partner of the oncoprotein); expressed in transfected cells; host or cells: Ba/F3 (lentiviral transduction, monoclonal line)
As to the kind of experiment: Cell growth inhibitory activity assay (CellTiter-Glo), Ba/F3 BCR-ABL1 E255V/T315I cells. As to conditions: 72 h, CTG cell viability. On the procedure:
as §2, §3, §4, §5

Another test deals with T7, Ba/F3 BCR-ABL1 V468F (Homo sapiens, UniProt P00519+P11274, V468F).
T7 construct: BCR (N-terminal fusion partner of the oncoprotein); expressed in transfected cells; host or cells: Ba/F3 (lentiviral transduction, monoclonal line)
As to the kind of experiment: Cell growth inhibitory activity assay (CellTiter-Glo), Ba/F3 BCR-ABL1 V468F cells. As to conditions: 72 h, CTG cell viability. As for the experimental part:
as §2, §3, §4, §5

In a further test the test system is K562 cells. As to the kind of experiment: Cell growth inhibitory activity assay (CellTiter-Glo), K562 cells. As to conditions: Homo sapiens, 72 h, CTG cell viability. The essentials: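 Growth inhibition of human K562 cells, sourced from Nanjing Kebai (CBP60529), was assessed with Promega's CellTiter-Glo kit, which measures viability through ATP quantification. Log-phase cells went into the inner wells of 96-well plates, with PBS in edge wells, incubated overnight at 37 °C and 5% CO2, then exposed to serially diluted compound for 72 h.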

The next test addresses T8, Ba/F3 BCR-ABL1 A337V (Homo sapiens, UniProt P00519+P11274, A337V).
T8 construct: BCR (N-terminal fusion partner of the oncoprotein); expressed in transfected cells; host or cells: Ba/F3 (lentiviral transduction, monoclonal line)
As to the kind of experiment: Cell growth inhibitory activity assay (CellTiter-Glo), Ba/F3 BCR-ABL1 A337V cells. As to conditions: 72 h, CTG cell viability. On the procedure:
as §2, §3, §4, §5

In a further test the target is T9, Ba/F3 BCR-ABL1 P465S (Homo sapiens, UniProt P00519+P11274, P465S).
T9 construct: BCR (N-terminal fusion partner of the oncoprotein); expressed in transfected cells; host or cells: Ba/F3 (lentiviral transduction, monoclonal line)
The experiment in a line: Cell growth inhibitory activity assay (CellTiter-Glo), Ba/F3 BCR-ABL1 P465S cells. As to conditions: 72 h, CTG cell viability. As for the experimental part: as §2, §3, §4, §5

A further test deals with Ba/F3 parental cells. The experiment in a line: Cell growth inhibitory activity assay (CellTiter-Glo), Ba/F3 parental cells. As to conditions: Mus musculus, BaF3, 72 h, CTG cell viability, read-out: IC50 Ba/F3 BCR-ABL1 Parental. The essentials: as §1
A further test concerns the target T10, Ba/F3 BCR-ABL1 I502L (Homo sapiens, UniProt P00519+P11274, I502L).
T10 construct: BCR (N-terminal fusion partner of the oncoprotein); expressed in transfected cells; host or cells: Ba/F3 (lentiviral transduction, monoclonal line)
As to the kind of experiment: Cell growth inhibitory activity assay (CellTiter-Glo), Ba/F3 BCR-ABL1 I502L cells. As to conditions: 72 h, CTG cell viability. On the procedure:
as §2, §3, §4, §5

pIC50: −log10 of the molar value.

Turning to `C[C@@H]1COCc2nc3cc(C(=O)Nc4ccc(OC(F)(F)Cl)cc4)cc(-c4cnc5c(c4)-c4nn(C6COC6)cc4C5)c3n21` [T-52, (R)-N-(4-(chlorodifluoromethoxy)phenyl)-4-methyl-6-(2-(oxetan-3-yl)-2,4-dihydropyrazolo[3',4':3,4]cyclopenta[1,2-b]pyridin-7-yl)-3,4-dihydro-1H-benzo[4,5]imidazo[2,1-c] [1,4]oxazine-8-carboxamide], the pIC50 at Ba/F3 BCR-ABL1 WT is not below 8.30; on Ba/F3 BCR-ABL1 A424T, 7.30 to 8.30; in [1] it was 7.30 to 8.30; against Ba/F3 BCR-ABL1 T315M, less than 6.00; at Ba/F3 BCR-ABL1 T315I, not below 8.30; in test [2] it was not below 8.30. In addition, the pIC50 against Ba/F3 BCR-ABL1 V468F is 7.30 to 8.30; with K562 cells it was not below 8.30; against Ba/F3 BCR-ABL1 A337V, 6.00 to 7.30; on Ba/F3 BCR-ABL1 P465S, 6.00 to 7.30; in the test on Ba/F3 parental cells, less than 6.00; at Ba/F3 BCR-ABL1 I502L, 7.30 to 8.30.

For `[2H]C([2H])([2H])C([2H])(n1cc2c(n1)-c1cc(-c3cc(C(=O)Nc4ccc(OC(F)(F)Cl)cc4)cc4nc5n(c34)[C@H](C)COC5)cnc1C2)C([2H])([2H])[2H]` [T-54], the pIC50 against Ba/F3 BCR-ABL1 WT was not below 8.30; against Ba/F3 BCR-ABL1 A424T it was 7.30 to 8.30; in [1], not below 8.30; against Ba/F3 BCR-ABL1 T315M, less than 6.00; at Ba/F3 BCR-ABL1 T315I, not below 8.30; in [2], not below 8.30. For the same molecule, the pIC50 against Ba/F3 BCR-ABL1 V468F is 7.30 to 8.30; in the test on K562 cells it was not below 8.30; against Ba/F3 BCR-ABL1 A337V, 7.30 to 8.30; on Ba/F3 BCR-ABL1 P465S it was 7.30 to 8.30; in the test on Ba/F3 parental cells it was less than 6.00; against Ba/F3 BCR-ABL1 I502L it was 7.30 to 8.30.

For the molecule `C[C@@H]1COCc2nc3cc(C(=O)Nc4ccc(OC(F)(F)Cl)cc4)cc(-c4cnc5c(c4)-c4nn(C6CC6)cc4C5)c3n21` [T-57, (R)-N-(4-(chlorodifluoromethoxy)phenyl)-6-(2-cyclopropyl-2,4-dihydropyrazolo[3',4':3,4]cyclopenta[1,2-b]pyridin-7-yl)-4-methyl-3,4-dihydro-1H-benzo[4,5]imidazo[2,1-c][1,4]oxazine-8-carboxamide], the pIC50 at Ba/F3 BCR-ABL1 WT was not below 8.30; at Ba/F3 BCR-ABL1 A424T, 7.30 to 8.30; in test [1], 7.30 to 8.30; against Ba/F3 BCR-ABL1 T315M, less than 6.00; on Ba/F3 BCR-ABL1 T315I, not below 8.30; in test [2], not below 8.30. Moreover, the pIC50 was 7.30 to 8.30 against Ba/F3 BCR-ABL1 V468F; not below 8.30 with K562 cells; 7.30 to 8.30 on Ba/F3 BCR-ABL1 A337V; 6.00 to 7.30 on Ba/F3 BCR-ABL1 P465S; less than 6.00 in the test on Ba/F3 parental cells; 7.30 to 8.30 on Ba/F3 BCR-ABL1 I502L.

As to `C[C@@H]1COCc2nc3cc(C(=O)Nc4ccc(OC(F)(F)Cl)cc4)cc(-c4cnc5c(c4)-c4nn(-c6ncccn6)cc4C5)c3n21` [T-65], the pIC50 (at Ba/F3 BCR-ABL1 WT; on Ba/F3 BCR-ABL1 A424T; in [1]; against Ba/F3 BCR-ABL1 T315M; against Ba/F3 BCR-ABL1 T315I; in [2]) was not below 8.30 each time. Further, the pIC50 is 7.30 to 8.30 against Ba/F3 BCR-ABL1 V468F; not below 8.30 with K562 cells; not below 8.30 against Ba/F3 BCR-ABL1 A337V; 7.30 to 8.30 against Ba/F3 BCR-ABL1 P465S; less than 6.00 in the test on Ba/F3 parental cells; not below 8.30 on Ba/F3 BCR-ABL1 I502L.
